Laboratory results as given in PubChem BioAssay (NCI).
Several values for one entry are separate records, joined by “and”; a condition that tells them apart may be missing. Equal values may be shown once.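 Compound exposure: 48 hours, 5 concentrations, 96-well plates. At the GI50, growth is halved. TGI: concentration producing complete growth inhibition.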

How the values were obtained:
Assay in all cases: DTP human tumour cell line panel, 48 h
M14 melanoma = system: M14 melanoma
SNB-78 CNS = system: SNB-78 CNS
DMS 273 small cell lung = system: DMS 273 small cell lung
NCI-H522 lung = system: NCI-H522 lung
HOP-92 NSCLC = system: HOP-92 NSCLC
T-47D breast = system: T-47D breast
HOP-18 NSCLC = system: HOP-18 NSCLC
XF 498 CNS = system: XF 498 CNS
NCI/ADR-RES ovarian = system: NCI/ADR-RES ovarian
MDA-MB-435 = system: MDA-MB-435

Compound | TGI (M14 melanoma) | TGI (SNB-78 CNS) | TGI (DMS 273 small cell lung) | TGI (NCI-H522 lung) | TGI (HOP-92 NSCLC) | GI50 (T-47D breast) | TGI (T-47D breast) | GI50 (HOP-18 NSCLC) | TGI (HOP-18 NSCLC) | GI50 (M14 melanoma) | GI50 (DMS 273 small cell lung) | GI50 (XF 498 CNS) | TGI (XF 498 CNS) | GI50 (NCI-H522 lung) | GI50 (NCI/ADR-RES ovarian) | TGI (NCI/ADR-RES ovarian) | GI50 (HOP-92 NSCLC) | GI50 (MDA-MB-435) | TGI (MDA-MB-435)
Cc1nc(Nc2ccc(Cl)cc2)sc1C(=O)Nc1cccc2c(=O)[nH][nH]c(=O)c12 | 86.2 µM | > 100 µM | > 100 µM | 75.5 µM | 38.8 µM | – | – | – | – | – | – | – | – | – | – | – | – | – | –
Cc1c(-c2ccc(-c3ccccc3F)cc2)nc2ccc(F)cc2c1C(=O)O | 111 µM and 219 µM | – | 29.3 µM and 89.9 µM | 93.8 µM and 434 µM | 88.6 µM | 10.2 µM and 79.5 µM | 259 µM and 792 µM | 57 µM | 192 µM and 182 µM | 6.76 µM and 24.4 µM | 0.5 µM | 106 µM | 164 µM and 230 µM | 9.89 µM and 67.3 µM | 8.96 µM and 17.2 µM | 170 µM and 377 µM | 27.7 µM | 1.28 µM and 0.371 µM and 2.48 µM | 101 µM and 128 µM
CC(NC1CCCC[C@@H]1O)c1ccccc1 (stereo partly specified) | > 100 µM | > 100 µM | > 100 µM | – | > 100 µM | – | – | – | > 100 µM | – | – | – | > 100 µM | – | – | – | – | – | –
CCOC(=O)C(Cc1cc(OC)c(CC(C(=O)OCC)C(=O)OCC)cc1OC)C(=O)OCC | > 100 µM | > 100 µM | > 100 µM | > 100 µM | 83.8 µM | – | > 100 µM | – | – | – | – | – | 53.7 µM | – | – | > 100 µM | – | – | > 100 µM
Nc1ccc(C(=O)N/C(=C\c2ccc3c(c2)OCO3)c2nc3ccccc3s2)cc1 | 23.9 µM | 30.5 µM | 34.2 µM | 28.5 µM | 24.7 µM | – | – | – | – | – | – | – | 25.5 µM | – | – | – | – | – | –
O=C(C#Cc1ccccc1)NC/C=C/c1ccccc1 | > 100 µM | 84.1 µM | – | 96.6 µM | 57.2 µM | – | – | – | > 100 µM | – | – | – | – | – | – | – | – | – | –
O=C(Nc1ccccc1)N1C(c2ccccc2)=N[C@@H](c2ccccc2)[C@@H]1c1ccccc1 | 28.2 µM | > 100 µM | – | – | 53.3 µM | – | – | – | 50.7 µM | – | – | – | – | – | – | – | – | – | –
CCOC(=N)CC(=O)Nc1ccccc1CC | > 100 µM | > 100 µM | > 100 µM | > 100 µM | – | – | – | – | > 100 µM | – | – | – | > 100 µM | – | – | – | – | – | –
COc1ccccc1/C=C(\NC(=O)c1ccccc1)c1nc2ccccc2[nH]1 | > 100 µM | > 100 µM | – | > 100 µM | 72.5 µM | – | – | – | > 100 µM | – | – | – | > 100 µM | – | – | – | – | – | –
Nc1ccccc1SC(/C=C/NNC1=NC(c2ccccc2)C(c2ccccc2)=NN1)c1ccccc1 (stereo unspecified) | 25.3 µM | 44.3 µM | 36.8 µM | 14.5 µM | 22.1 µM | – | – | – | – | – | – | – | – | – | – | – | – | – | –
CN(C)C(=S)/N=c1\ssc(=Nc2ccccc2)n1-c1ccccc1 | 44.2 µM | 79.7 µM | 48.5 µM | 34 µM | 46 µM | – | – | – | > 100 µM | – | – | – | – | – | – | – | – | – | –
NCCOCCOCC(=O)O | – | > 100 µM | > 100 µM | > 100 µM | > 100 µM | – | – | – | – | – | – | – | – | – | – | – | – | – | –
O=C(O)C1CC2C=CCC(C2)C1 (stereo unspecified) | > 100 µM | > 100 µM | > 100 µM | > 100 µM | > 100 µM | – | – | – | > 100 µM | – | – | – | > 100 µM | – | – | – | – | – | –
COC(=O)CCC(NC(=S)N/N=C(\C)c1cccs1)C(=O)OC (stereo unspecified) | > 100 µM | > 100 µM | > 100 µM | > 100 µM | > 100 µM | – | – | – | > 100 µM | – | – | – | > 100 µM | – | – | – | – | – | –
COC(=O)C1=C(O)c2cc(OC)c(OC)c(OC)c2C(c2ccc3c(c2)OCO3)[C@@H]1C(=O)OC (stereo partly specified) | 10.7 µM | > 100 µM | > 100 µM | – | > 100 µM | – | – | – | > 100 µM | – | – | – | – | – | – | – | – | – | –
O=C1C=C(NCCc2ccccc2)c2ccccc2C1=O | 2.99 µM | 42.8 µM | 7.55 µM | 4.41 µM | 29.5 µM | – | 40.1 µM | – | 3 µM | – | – | – | – | – | – | 23 µM | – | – | 2.34 µM
O=S1(=O)CCC2=CC(C(F)(F)F)=CC(C(F)(F)F)=CN21 | 2.03 µM | 6.49 µM | – | 0.601 µM | 4.26 µM | – | 0.397 µM | – | 8.27 µM | – | – | – | 3.42 µM | – | – | – | – | – | 4.77 µM
